Source: patent US20260199484A1, “PROTAC DEGRADERS OF MLLT1 AND/OR MLLT3” (DARK BLUE THERAPEUTICS LTD, priority 2024, published 2026)

Target: T1, MLLT1 (Homo sapiens, UniProt Q03111)
T1 sequence (Q03111 1-559): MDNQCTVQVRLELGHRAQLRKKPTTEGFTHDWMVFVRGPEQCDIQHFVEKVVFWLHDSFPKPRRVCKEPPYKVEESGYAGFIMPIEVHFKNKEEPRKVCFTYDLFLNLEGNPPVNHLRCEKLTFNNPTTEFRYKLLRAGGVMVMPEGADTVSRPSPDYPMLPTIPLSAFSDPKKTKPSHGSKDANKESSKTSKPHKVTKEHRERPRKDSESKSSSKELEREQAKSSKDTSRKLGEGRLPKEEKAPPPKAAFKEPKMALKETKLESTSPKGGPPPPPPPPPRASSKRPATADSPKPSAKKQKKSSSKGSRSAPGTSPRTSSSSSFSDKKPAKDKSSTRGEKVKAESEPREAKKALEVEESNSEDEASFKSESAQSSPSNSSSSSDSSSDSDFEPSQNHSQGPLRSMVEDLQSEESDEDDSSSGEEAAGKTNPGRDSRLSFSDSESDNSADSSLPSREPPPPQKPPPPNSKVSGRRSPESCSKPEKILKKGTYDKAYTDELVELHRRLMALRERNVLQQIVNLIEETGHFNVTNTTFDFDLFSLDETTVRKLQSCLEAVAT
Test: MLLT1 degradation assay in MV4-11 cells (JESS, 24 h)
Assay type: cell-based
Set-up: endogenous in cells; host or cells: MV4-11 (ATCC CRL-9591)
Conditions: vs DMSO control
Procedure: MLLT1 degradation efficacy of compounds was tested in an automated chemiluminescent detection system (JESS, Cat #004-650). MV4-11 (#CRL-9591, ATCC) cells were seeded at a density of 1.2 million cells/well in a non-treated 6-well cell culture plate in 2.4 mL of complete medium (IMDM+10% FBS+1× Penicillin-Streptomycin). 10 mM DMSO stocks were prepared, and cells were treated with three concentrations of test compounds viz. 1000, 100 and 10 nM at a final DMSO concentration of 0.1% and incubated for 24 h at 37° C., 5% CO2. Post incubation, cells were centrifuged, washed with HBSS and lysed in 70 μL of RIPA buffer supplemented with Protease inhibitors (sc-24948; Santa Cruz). Subsequently, protein estimation was done using BCA protein assay kit (23225; Pierce). 4 ug protein lysate (4 uL of 1 ug/uL lysate) was loaded into each well of the JESS cartridge (SM-W001; Bio-techne) and the JESS run was performed using 1:900 dilution of anti-human MLLT1 antibody (14893; Cell signaling technology) and 1:1200 dilution of anti-human GAPDH antibody (2118; Cell signaling technology) with anti-rabbit secondary detection module (DM-001; Bio-Techne). Post run, data were analysed using “Compass for SW” software for chemiluminescent detection. The peak area for each band was used for the calculation of MLLT1 degradation with respect to DMSO control. Data is shown as “MLLT1% degradation”. • Category A: A≥75% degradation • Category B: 50%≤B<75% degradation • Category C: 25%≤C<50% degradation • Category D: D<25% degradation

Row | MLLT1% Degradation @ 0.01 μM | MLLT1% Degradation @ 0.1 μM | MLLT1% Degradation @ 1 μM | Structure (SMILES)
1 | D (Category D: D<25% degradation) | C (Category C: 25%≤C<50% degradation) | B (Category B: 50%≤B<75% degradation) | Cc1nn(CCCCCCCC#Cc2ccc(C(=O)N[C@H]3CCC(=O)NC3=O)nc2)c2cc(C(=O)Nc3cc4[nH]c([C@H]5CCCN5C)cc4cn3)ccc12 [Example 41, 1-(9-(6-(((S)-2,6-dioxopiperidin-3-yl)carbamoyl)pyridin-3-yl)non-8-yn-1-yl)-3-methyl-N-(2-((R)-1-methylpyrrolidin-2-yl)-1H-pyrrolo[3,2-c]pyridin-6-yl)-1H-indazole-6-carboxamide]
2 | A (Category A: A≥75% degradation) | A (Category A: A≥75% degradation) | A (Category A: A≥75% degradation) | Cc1nn(CCCCCOCC#Cc2cccc3c2CN(C2CCC(=O)NC2=O)C3=O)c2cc(C(=O)Nc3cc4[nH]c([C@H]5CCCN5C)cc4cn3)ccc12 (stereo partly drawn) [Example 49, 1-(5-((3-(2-(2,6-dioxopiperidin-3-yl)-1-oxoisoindolin-4-yl)prop-2-yn-1-yl)oxy)pentyl)-3-methyl-N-(2-((R)-1-methylpyrrolidin-2-yl)-1H-pyrrolo[3,2-c]pyridin-6-yl)-1H-indazole-6-carboxamide]
3 | C (Category C: 25%≤C<50% degradation) | B (Category B: 50%≤B<75% degradation) | A (Category A: A≥75% degradation) | Cc1nn(CCCCCCCC#Cc2cc3c(cc2F)C(=O)N(C2CCC(=O)NC2=O)C3)c2cc(C(=O)Nc3cc4[nH]c([C@H]5CCCN5C)cc4cn3)ccc12 (stereo partly drawn) [Example 60, 1-(9-(2-(2,6-dioxopiperidin-3-yl)-6-fluoro-1-oxoisoindolin-5-yl)non-8-yn-1-yl)-3-methyl-N-(2-((R)-1-methylpyrrolidin-2-yl)-1H-pyrrolo[3,2-c]pyridin-6-yl)-1H-indazole-6-carboxamide]
4 | B (Category B: 50%≤B<75% degradation) | A (Category A: A≥75% degradation) | A (Category A: A≥75% degradation) | Cc1nn(CCCCCCC2CCN(c3cccc(C(=O)N[C@H]4CCC(=O)NC4=O)n3)CC2)c2cc(C(=O)Nc3cc4[nH]c([C@H]5CCCN5C)cc4cn3)ccc12 [Example 73, 1-(6-(1-(6-(((S)-2,6-dioxopiperidin-3-yl)carbamoyl)pyridin-2-yl)piperidin-4-yl)hexyl)-3-methyl-N-(2-((R)-1-methylpyrrolidin-2-yl)-1H-pyrrolo[3,2-c]pyridin-6-yl)-1H-indazole-6-carboxamide]
5 | C (Category C: 25%≤C<50% degradation) | B (Category B: 50%≤B<75% degradation) | A (Category A: A≥75% degradation) | CN1CCC[C@@H]1c1cc2cnc(NC(=O)c3ccc4c(c3)c(N3CCC(CN5CCN(c6cc7c(cc6F)C(=O)N(C6CCC(=O)NC6=O)C7=O)CC5)CC3)nn4C)cc2[nH]1 (stereo partly drawn) [Example 6, 3-[4-({4-[2-(2,6-dioxopiperidin-3-yl)-6-fluoro-1,3-dioxoisoindol-5-yl]piperazin-1-yl}methyl)piperidin-1-yl]-1-methyl-N-{2-[(2R)-1-methylpyrrolidin-2-yl]-1H-pyrrolo[3,2-c]pyridin-6-yl}indazole-5-carboxamide]
6 | B (Category B: 50%≤B<75% degradation) | B (Category B: 50%≤B<75% degradation) | A (Category A: A≥75% degradation) | Cc1nn(CCCCCCCC#Cc2cccc(C3CCC(=O)NC3=O)n2)c2cc(C(=O)Nc3cc4[nH]c([C@H]5CCCN5C)cc4cn3)ccc12 (stereo partly drawn) [Example 62, 1-(9-(6-(2,6-dioxopiperidin-3-yl)pyridin-2-yl)non-8-yn-1-yl)-3-methyl-N-(2-((R)-1-methylpyrrolidin-2-yl)-1H-pyrrolo [3,2-c]pyridin-6-yl)-1H-indazole-6-carboxamide]
